From patent US4146719A, “Piperazinyl derivatives of quinoline carboxylic acids” (priority 1977, dated 1979)
Converted amounts (≈) assume the structure as drawn. Like-named read-outs stand apart in the source and are kept apart here.

Key:
Pr. vulgaris XK Denken = test: Antibacterial activity in vitro, M.I.C., agar dilution streak method; type: cell-based, Proteus vulgaris; conditions: Proteus vulgaris
[1] = test system: Proteus vulgaris IFO 3167; test: as above; type: cell-based; conditions: Proteus vulgaris, IFO3167
Ps. aeruginosa IID 1130 = test: as above; type: cell-based, Pseudomonas aeruginosa; conditions: Pseudomonas aeruginosa, IID1130
Ps. aeruginosa IID 1210 = test: as above; type: cell-based, Pseudomonas aeruginosa; conditions: Pseudomonas aeruginosa, IID1210
Str. faecalis IID 682 = test: as above; type: cell-based; conditions: Enterococcus faecalis, IID682; Gram +
Ps. aeruginosa IFO 12689 = test: as above; type: cell-based, Pseudomonas aeruginosa; conditions: Pseudomonas aeruginosa, IFO12689
[2] = test system: Streptococcus pyogenes IID 692; test: as above; type: cell-based; conditions: Streptococcus pyogenes, IID692
[3] = test system: Neisseria perflava IID 856; test: as above; type: cell-based; conditions: Neisseria perflava, IID856
Str. pyogenes S-8 = test: as above; type: cell-based, Streptococcus pyogenes; conditions: Streptococcus pyogenes, S8
My. smegmatis IFO 3083 = test: as above; type: cell-based; conditions: Mycolicibacterium smegmatis, IFO3083
Shigella sonnei IID 969 = test: as above; type: cell-based; conditions: Shigella sonnei, IID969; Gram -
[4] = test system: Diplococcus pneumoniae IID 552; test: as above; type: cell-based; conditions: Streptococcus pneumoniae, IID552
Escherichia coli NIHJ = test: as above; type: cell-based; conditions: Escherichia coli
[5] = test system: Pseudomonas aeruginosa V-1; test: as above; type: cell-based; conditions: Pseudomonas aeruginosa, V1
[6] = test system: Bacillus subtilis PCI 219; test: as above; type: cell-based; conditions: Bacillus subtilis, PCI219
E. coli ATCC 10536 = test: as above; type: cell-based, Escherichia coli; conditions: Escherichia coli, ATCC10536
[7] = test system: Klebsiella pneumoniae IFO 3512; test: as above; type: cell-based; conditions: Klebsiella pneumoniae, IFO3512
Sta. aureus ATCC 14775 = test: as above; type: cell-based, Staphylococcus aureus; conditions: Staphylococcus aureus, ATCC14775
[8] = test system: Haemophilus influenzae IID 986; test: as above; type: cell-based; conditions: Haemophilus influenzae, IID986
[9] = test system: Corynebacterium pyogenes IID 548; test: as above; type: cell-based; conditions: Corynebacterium pyogenes, IID548; Gram +
[10] = test system: Mycobacterium phlei IFO 3142; test: as above; type: cell-based; conditions: Mycolicibacterium phlei, IFO3142
[11] = test system: Pseudomonas aeruginosa IID 1210; test: Preventive effect against systemic infection with Pseudomonas aeruginosa in mice; type: in vivo, Pseudomonas aeruginosa; mice (ddY, male); conditions: Pseudomonas aeruginosa, subcutaneous, challenge 3.5 × 10^4 cells/mouse
Protocol: Systemic infection was produced by inoculating male mice (strain: ddY, 6 weeks old, body weight: 28-33g) in intraperitoneally with Pseudomonas aeruginosa IID 1210 suspended in 0.5 ml of Brain heart infusion broth (Eiken) containing 5% mucin. […] Each of these test materials was administered to the mice twice, immediately after and then 6 hours after the inoculation, and the therapeutic effect of each compounds was judged from the survival rate.
(1) Miller L. C. and M. L. Tainter: Estimation of the ED50 and its error by means of logarithmic-probit graph paper Proc. Soc. Exp. Biol. Med. 57 261-264 (1944)
(2) Litchfield J. T. and F. Wilcoxon: A simplified method of evaluating dose - effect J. Pharmacol. 92 99-113 (1948)

[12] = test system: Salmonella enteritidis IID 604; test: Antibacterial activity in vitro, M.I.C., agar dilution streak method; type: cell-based; conditions: Salmonella enterica
[13] = test system: Staphylococcus aureus 209P; test: as above; type: cell-based; conditions: Staphylococcus aureus, 209P
[14] = Biliary excretion in rats after a single oral administration of 50 mg/kg; conditions: in vivo, rat, 50 mg/kg oral
[15] = Chem. Abstr., 62, 15600h (1965); cited from earlier work
Escherichia coli = test: Concentration ratio in serum to M.I.C. after oral administration of 50 mg/kg in rats; type: in vivo, Escherichia coli; rats; conditions: rat, 50 mg/kg oral
[16] = test system: Escherichia coli NIHJ JC-2; test: Preventive effect against ascending kidney infection in mice with Escherichia coli; type: in vivo, Escherichia coli; mice (ddY, female); conditions: Escherichia coli
Protocol: Ascending kidney infection was induced in female mice (strain: ddY, 6 weeks old, body weight: 22-26g), by instilling Escherlichia coli NIHJ JC-2 suspended in 0.04 ml of Tryptosoya broth (Nissan) into the urinary tract of mice anesthetized with sodium pentobarbital and by holding for 6 hours the mice in plastic tubes (diameter 25 mm) and clamping the outlet of urinary tract.
Each of these test material was orally administered 3 hours after inoculation. Mice were sacrificed 48 hours after inoculation. Kidneys were removed aseptically and bisected, and the two halves were pressed and streaked on agar plate containing Desoxycholate medium (Nissan). The therapeutic effect of each compound was evaluated from the absence of growth on the agar surface after 20 hours of incubation at 37° C.

[17] = test system: Escherichia coli NIHJ JC-2; test: Influence of rat bile on antibacterial activity; type: cell-based; conditions: bile of rats
Protocol: Nutrient agar was heated and melted. […] The diameter of the inhibition zone was measured.

[18] = test system: gram-positive and gram-negative bacteria including Pseudomonas aeruginosa; test: Antibacterial spectrum in vitro (summary in words); type: cell-based
[19] = Chelate formation with ferric ion; type: physicochemical; conditions: one third molar equivalent of ferric chloride hexahydrate, water
Description: It is known that most of drugs such as Quinoform and Ethambutol which form chelates with metal ions in vivo produce undesirable side effects.

CC1(C)S[C@@H]2[C@H](NC(=O)C(C(=O)O)c3ccccc3)C(=O)N2[C@H]1C(=O)O (some centres unmarked) [Carbenicillin]
MIC (Pr. vulgaris XK Denken; Gram -, read-out: M.I.C.): 0.39 mg/L (≈ 1.03 µM)
MIC ([1]; Gram -, read-out: M.I.C.): 6.25 mg/L (≈ 16.5 µM)
MIC (Ps. aeruginosa IID 1130; Gram -, read-out: M.I.C.): 200 mg/L (≈ 529 µM)
MIC (Ps. aeruginosa IID 1210; Gram -, read-out: M.I.C.): 100 mg/L (≈ 264 µM)
MIC (Str. faecalis IID 682): 100 mg/L
MIC (Ps. aeruginosa IFO 12689; Gram -, read-out: M.I.C.): 100 mg/L (≈ 264 µM)
MIC ([2]; Gram +, read-out: M.I.C.): 0.1 mg/L (≈ 0.264 µM)
MIC [3]: 1.56 mg/L (≈ 4.12 µM)
MIC (Str. pyogenes S-8; Gram +, read-out: M.I.C.): 0.1 mg/L (≈ 0.264 µM)
MIC (My. smegmatis IFO 3083; Gram +, read-out: M.I.C.): 6.25 mg/L (≈ 16.5 µM)
MIC (Shigella sonnei IID 969): 1.56 mg/L (≈ 4.12 µM)
MIC ([4]; Gram +, read-out: M.I.C.): 0.39 mg/L (≈ 1.03 µM)
MIC (Escherichia coli NIHJ): 1.56 mg/L (≈ 4.12 µM)
MIC ([5]; Gram -, read-out: M.I.C.): 12.5 mg/L (≈ 33 µM)
MIC ([6]; Gram +, read-out: M.I.C.): 0.39 mg/L (≈ 1.03 µM)
MIC (E. coli ATCC 10536): 1.56 mg/L (≈ 4.12 µM)
MIC ([7]; Gram -, read-out: M.I.C.): > 200 mg/L
MIC (Sta. aureus ATCC 14775; Gram +, read-out: M.I.C.): 6.25 mg/L (≈ 16.5 µM)
MIC ([8]; Gram -, read-out: M.I.C.): 0.39 mg/L (≈ 1.03 µM)
MIC [9]: 0.2 mg/L
MIC ([10]; Gram +, read-out: M.I.C.): > 200 mg/L
ED50 ([11]; IID1210, sc, twice (immediately and 6 hours after inoculation), read-out: ED50 (95% confidence limit)): 800 mg/kg
ED90 ([11]; IID1210, twice, read-out: ED90): 1430 mg/kg
MIC ([12]; Gram -, read-out: M.I.C.): 12.5 mg/L (≈ 33 µM)
MIC ([13]; Gram +, read-out: M.I.C.): 0.39 mg/L (≈ 1.03 µM)

CCn1cc(C(=O)O)c(=O)c2ccc(C)nc21 [Nalidixic acid]
dose excreted at 3 h ([14]; 0-3 hours, mean ±S.E., read-out: Biliary excretion, cumulative recovery): 0.29 ± 0.03%
concentration at 3 h ([14]; 0-3 hrs., mean±S.E., read-out: Biliary level): 14.7 ± 1.5 µg/mL
dose excreted at 6 h ([14]; 0-6 hours, mean ±S.E., read-out: Biliary excretion, cumulative recovery): 0.56 ± 0.05%
dose excreted at 24 h ([14]; 0-24 hours, mean ±S.E., read-out: Biliary excretion, cumulative recovery): 1.33 ± 0.1%
dose excreted at 27 h ([14]; 0-27 hours, mean ±S.E., read-out: Biliary excretion, cumulative recovery): 1.33 ± 0.1%
concentration at 6 h ([14]; 3-6 hrs., mean±S.E., read-out: Biliary level): 16.6 ± 2.4 µg/mL
concentration at 24 h ([14]; 6-24 hrs., mean±S.E., read-out: Biliary level): 9.3 ± 1.6 µg/mL
concentration at 27 h ([14]; 24-27 hrs., read-out: Biliary level (not detected symbol)): < 2 µg/mL
MIC (Pr. vulgaris XK Denken): 3.13 mg/L (≈ 13.5 µM)
MIC [1]: 3.13 mg/L (≈ 13.5 µM)
MIC (Ps. aeruginosa IID 1130): > 200 mg/L
chelate compound with ferric ion [15]: afforded chelate compound when treated with ferric ion
serum concentration / M.I.C. ratio (in words) (Escherichia coli): smaller than that of the compound (II)
MIC (Ps. aeruginosa IID 1210): > 200 mg/L
MIC (Ps. aeruginosa IFO 12689): > 200 mg/L
MIC [2]: > 100 mg/L
MIC [3]: 1.56 mg/L (≈ 6.72 µM)
MIC (Str. pyogenes S-8): > 100 mg/L
ED90 ([16]; NIHJJC2, 48 h): 345 mg/kg
ED50 ([16]; NIHJJC2, po, 48 h, read-out: ED50 (95% confidence limit)): 86 mg/kg
MIC (My. smegmatis IFO 3083): > 100 mg/L
MIC (Shigella sonnei IID 969): 1.56 mg/L (≈ 6.72 µM)
MIC [4]: > 100 mg/L
antibacterial activity in presence of bile (in words) [17]: not influenced by bile of rats
MIC (Escherichia coli NIHJ): 3.13 mg/L (≈ 13.5 µM)
MIC [5]: 100 mg/L (≈ 431 µM)
antibacterial activity (in words) [18]: inactive on many strains of gram-positive bacteria and many Pseudomonas aeruginosa strains
shift of absorption maxima on treatment with ferric ion ([19]; from 256 and 326 nm, NaOH): shifted to shorter wave length at 248 and 311 nm
chelate compound with ferric ion ([19]; molar equivalent of sodium hydroxide): 3:1 chelate compound of nalidixic acid and ferric ion was obtained
MIC [6]: 6.25 mg/L (≈ 26.9 µM)
MIC (E. coli ATCC 10536): 3.13 mg/L (≈ 13.5 µM)
MIC [7]: 1.56 mg/L (≈ 6.72 µM)
MIC (Sta. aureus ATCC 14775): > 100 mg/L
MIC [8]: 1.56 mg/L (≈ 6.72 µM)
MIC [10]: 100 mg/L (≈ 431 µM)
MIC [12]: 12.5 mg/L (≈ 53.8 µM)
MIC [13]: 100 mg/L (≈ 431 µM)
